Measured values reported in article PMC7247680, “Novel Indole-Based Hydrazones as Potent Inhibitors of the α-class Carbonic Anhydrase from Pathogenic Bacterium Vibrio cholerae” (International Journal of Molecular Sciences, 2020).

Target: T1, VcCA (α-class carbonic anhydrase from Vibrio cholerae) (Vibrio cholerae, UniProt Q9KMP6)
T1 construct: gene VC_A0274
Experiment: stopped-flow CO2 hydration assay, Cheng-Prusoff
Type: biochemical
Conditions: read-out: KI * (nM) / VcCA; CO2 substrate, pH 7.4, 10 mM Hepes, 0.1 M NaClO4, 25 °C, 15 min pre-incubation

T1 sequence (Q9KMP6 21-239 limits assumed): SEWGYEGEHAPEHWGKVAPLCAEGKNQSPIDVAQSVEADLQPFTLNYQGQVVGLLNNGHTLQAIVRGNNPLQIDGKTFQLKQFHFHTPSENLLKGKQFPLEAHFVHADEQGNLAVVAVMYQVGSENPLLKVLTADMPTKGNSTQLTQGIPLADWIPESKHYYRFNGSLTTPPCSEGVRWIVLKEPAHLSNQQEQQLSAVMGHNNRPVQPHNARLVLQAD

## CC(C)(C)C1CCC(=NNC(=O)c2[nH]c3ccc(S(N)(=O)=O)cc3c2-c2ccccc2)CC1 (stereo not shown) [compound 22, 22 (R/R1 = 4-tert-butylcyclohexyl)]
  Ki: 34.1 nM

## CCC1CCC(=NNC(=O)c2[nH]c3ccc(S(N)(=O)=O)cc3c2-c2ccccc2)CC1 (stereo not shown) [compound 19, 19 (R/R1 = 4-ethylcyclohexyl)]
  Ki: 62.1 nM

## C=NNC(=O)c1[nH]c2ccc(S(N)(=O)=O)cc2c1-c1ccccc1 [compound 10, 10 (R = H, R1 = H)]
  Ki: 46.6 nM

## NS(=O)(=O)c1ccc2[nH]c(C(=O)NN=C3CCCC3)c(-c3ccccc3)c2c1 [compound 16, 16 (R/R1 = cyclopentyl)]
  Ki: 68 nM

## NS(=O)(=O)c1ccc2[nH]c(C(=O)NN=Cc3cccs3)c(-c3ccccc3)c2c1 [compound 4, 4 (R = H, R1 = thiophen-2-yl)]
  Ki: 80.4 nM

## NS(=O)(=O)c1ccc2[nH]c(C(=O)NN=Cc3ccc(Br)s3)c(-c3ccccc3)c2c1 [compound 5, 5 (R = H, R1 = 5-Br-thiophen-2-yl)]
  Ki: 94.8 nM

## CC=NNC(=O)c1[nH]c2ccc(S(N)(=O)=O)cc2c1-c1ccccc1 [compound 11, 11 (R = H, R1 = CH3)]
  Ki: 27.1 nM

## CC(CC(C)C)=NNC(=O)c1[nH]c2ccc(S(N)(=O)=O)cc2c1-c1ccccc1 [compound 15, 15 (R = CH3, R1 = isobutyl)]
  Ki: 79.6 nM

## CC1CCC(=NNC(=O)c2[nH]c3ccc(S(N)(=O)=O)cc3c2-c2ccccc2)CC1 (stereo not shown) [compound 18, 18 (R/R1 = 4-methylcyclohexyl)]
  Ki: 71.4 nM

## NS(=O)(=O)c1ccc2[nH]c(C(=O)NN=Cc3cccnc3)c(-c3ccccc3)c2c1 [compound 7, 7 (R = H, R1 = pyridin-3-yl)]
  Ki: 74.2 nM

## NS(=O)(=O)c1ccc2[nH]c(C(=O)NN=C3CCCCC3)c(-c3ccccc3)c2c1 [compound 17, 17 (R/R1 = cyclohexyl)]
  Ki: 81.4 nM

## NS(=O)(=O)c1ccc2[nH]c(C(=O)NN=Cc3c[nH]c4ccccc34)c(-c3ccccc3)c2c1 [compound 9, 9 (R = H, R1 = indol-3-yl)]
  Ki: 60.5 nM

## NS(=O)(=O)c1ccc2[nH]c(C(=O)NN=C3CCN(Cc4ccccc4)CC3)c(-c3ccccc3)c2c1 [compound 24, 24 (R/R1 = 1-benzylpiperidin-4-yl)]
  Ki: 92.4 nM

## NS(=O)(=O)c1ccc2[nH]c(C(=O)NN=Cc3ccncc3)c(-c3ccccc3)c2c1 [compound 8, 8 (R = H, R1 = pyridin-4-yl)]
  Ki: 72.1 nM

## CCCC1CCC(=NNC(=O)c2[nH]c3ccc(S(N)(=O)=O)cc3c2-c2ccccc2)CC1 (stereo not shown) [compound 20, 20 (R/R1 = 4-propylcyclohexyl)]
  Ki: 67.5 nM

## Cn1cccc1C=NNC(=O)c1[nH]c2ccc(S(N)(=O)=O)cc2c1-c1ccccc1 [compound 6, 6 (R = H, R1 = 1-CH3-pyrrol-2-yl)]
  Ki: 74.1 nM

## CN1CCC(=NNC(=O)c2[nH]c3ccc(S(N)(=O)=O)cc3c2-c2ccccc2)CC1 [compound 23, 23 (R/R1 = 1-methylpiperidin-4-yl)]
  Ki: 25.2 nM

## CC(C)=NNC(=O)c1[nH]c2ccc(S(N)(=O)=O)cc2c1-c1ccccc1 [compound 12, 12 (R = CH3, R1 = CH3)]
  Ki: 22.8 nM

## NS(=O)(=O)c1ccc2[nH]c(C(=O)NN=C3CCC(c4ccccc4)CC3)c(-c3ccccc3)c2c1 (stereo not shown) [compound 21, 21 (R/R1 = 4-phenylcyclohexyl)]
  Ki: 52.1 nM
